Results taken from PubChem BioAssay (NCI).
Values joined by “and” are separate entries in the source; they are usually repeats but may differ in a detail not shown here. Identical values can stand only once.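 Tested at 5 concentrations; 48 h exposure; 96-well plates; endpoints linearly interpolated, else capped at highest concentration. GI50 is the concentration that inhibits growth by half. TGI: total growth inhibition.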

Assays:
Test in all cases: growth of human tumour cells (NCI), 48 h
SR leukemia = system: SR leukemia
HS 578T breast = system: HS 578T breast
HT29 colon = system: HT29 colon
PC-3 prostate = system: PC-3 prostate
MDA-MB-231 breast = system: MDA-MB-231 breast
SF-295 CNS = system: SF-295 CNS
K-562 leukemia = system: K-562 leukemia
HOP-62 NSCLC = system: HOP-62 NSCLC
OVCAR-4 ovarian = system: OVCAR-4 ovarian
SW-620 colon = system: SW-620 colon
LOX IMVI melanoma = system: LOX IMVI melanoma
U251 CNS = system: U251 CNS
HL-60(TB) leukemia = system: HL-60(TB) leukemia
MCF7 breast = system: MCF7 breast
MDA-N = system: MDA-N
RPMI-8226 leukemia = system: RPMI-8226 leukemia
BT-549 breast = system: BT-549 breast
SK-OV-3 ovarian = system: SK-OV-3 ovarian
UO-31 renal = system: UO-31 renal
HCT-116 colon = system: HCT-116 colon
SK-MEL-5 melanoma = system: SK-MEL-5 melanoma
NCI-H460 lung = system: NCI-H460 lung
HCT-15 colon = system: HCT-15 colon
COLO 205 colon = system: COLO 205 colon
SF-539 CNS = system: SF-539 CNS
M14 melanoma = system: M14 melanoma
SK-MEL-2 melanoma = system: SK-MEL-2 melanoma
MOLT-4 leukemia = system: MOLT-4 leukemia
OVCAR-5 ovarian = system: OVCAR-5 ovarian
DU-145 prostate = system: DU-145 prostate
A549 NSCLC = system: A549 NSCLC
SF-268 CNS = system: SF-268 CNS
SNB-19 CNS = system: SNB-19 CNS
OVCAR-8 ovarian = system: OVCAR-8 ovarian
UACC-62 melanoma = system: UACC-62 melanoma
CAKI-1 renal = system: CAKI-1 renal
OVCAR-3 ovarian = system: OVCAR-3 ovarian
RXF 393 renal = system: RXF 393 renal
786-0 renal = system: 786-0 renal
ACHN renal = system: ACHN renal
HOP-92 NSCLC = system: HOP-92 NSCLC
KM12 colon = system: KM12 colon
IGROV1 ovarian = system: IGROV1 ovarian
SK-MEL-28 melanoma = system: SK-MEL-28 melanoma
CCRF-CEM leukemia = system: CCRF-CEM leukemia
NCI/ADR-RES ovarian = system: NCI/ADR-RES ovarian
A498 renal = system: A498 renal
EKVX NSCLC = system: EKVX NSCLC
TK-10 renal = system: TK-10 renal
SN12C renal = system: SN12C renal
T-47D breast = system: T-47D breast
SNB-75 CNS = system: SNB-75 CNS
UACC-257 melanoma = system: UACC-257 melanoma
MDA-MB-435 = system: MDA-MB-435
HCC-2998 colon = system: HCC-2998 colon
NCI-H522 lung = system: NCI-H522 lung
MALME-3M melanoma = system: MALME-3M melanoma
NCI-H23 lung = system: NCI-H23 lung
NCI-H226 lung = system: NCI-H226 lung

## O=C1/C(=C/c2ccccc2S)N=C(c2ccccc2)N1c1nc2c(Cl)cc(Cl)cc2s1
SR leukemia
  TGI: 34 µM
HS 578T breast
  TGI: 75.8 µM
HT29 colon
  TGI: 40.1 µM
PC-3 prostate
  TGI: 51.6 µM
MDA-MB-231 breast
  TGI: 80.9 µM
SF-295 CNS
  TGI: 72.4 µM
K-562 leukemia
  TGI: 81.5 µM
HOP-62 NSCLC
  TGI: 47.2 µM
OVCAR-4 ovarian
  TGI: 73.8 µM
SW-620 colon
  TGI: > 100 µM
LOX IMVI melanoma
  TGI: 50.4 µM
U251 CNS
  TGI: 54.2 µM
HL-60(TB) leukemia
  TGI: 42.6 µM
MCF7 breast
  TGI: 58.1 µM
MDA-N
  TGI: 36.9 µM
RPMI-8226 leukemia
  TGI: 54.1 µM
BT-549 breast
  TGI: > 100 µM
SK-OV-3 ovarian
  TGI: 66 µM
UO-31 renal
  TGI: 48.1 µM
HCT-116 colon
  TGI: 36.5 µM
SK-MEL-5 melanoma
  TGI: 36 µM
NCI-H460 lung
  TGI: > 100 µM
HCT-15 colon
  TGI: > 100 µM
COLO 205 colon
  TGI: 54.8 µM
SF-539 CNS
  TGI: 40.8 µM
M14 melanoma
  TGI: 66.2 µM
SK-MEL-2 melanoma
  TGI: 52.9 µM
MOLT-4 leukemia
  TGI: 30.2 µM
OVCAR-5 ovarian
  TGI: 54.8 µM
DU-145 prostate
  TGI: > 100 µM
A549 NSCLC
  TGI: 54.3 µM
SF-268 CNS
  TGI: > 100 µM
SNB-19 CNS
  TGI: 84.5 µM
OVCAR-8 ovarian
  TGI: 73.3 µM
UACC-62 melanoma
  TGI: 57.5 µM
CAKI-1 renal
  TGI: > 100 µM
OVCAR-3 ovarian
  TGI: 40.2 µM
RXF 393 renal
  TGI: 58 µM
786-0 renal
  TGI: 74.1 µM
ACHN renal
  TGI: 58 µM
HOP-92 NSCLC
  TGI: 49.6 µM
KM12 colon
  TGI: 88.1 µM
IGROV1 ovarian
  TGI: 67.2 µM
SK-MEL-28 melanoma
  TGI: > 100 µM
CCRF-CEM leukemia
  TGI: 13.7 µM
NCI/ADR-RES ovarian
  TGI: 84.9 µM
A498 renal
  TGI: 40.7 µM
EKVX NSCLC
  TGI: 36 µM
TK-10 renal
  TGI: > 100 µM
SN12C renal
  TGI: 44.2 µM
T-47D breast
  TGI: > 100 µM
SNB-75 CNS
  TGI: 64.8 µM
UACC-257 melanoma
  TGI: > 100 µM
MDA-MB-435
  TGI: 48.2 µM
HCC-2998 colon
  TGI: 54.7 µM

## C=C(Cl)C(Br)(CCl)CCC(Br)C(C)(C)Cl (centres undefined)
SR leukemia
  TGI: 7.28 µM
HS 578T breast
  GI50: 2620 nM
  TGI: > 27.9 µM
HT29 colon
  TGI: 4.23 µM
PC-3 prostate
  TGI: 14.2 µM
MDA-MB-231 breast
  GI50: 2020 nM
  TGI: 2.32 µM and 3.77 µM
SF-295 CNS
  TGI: 19.9 µM
NCI-H522 lung
  GI50: 2820 nM
  TGI: 9.26 µM and 6.43 µM
K-562 leukemia
  GI50: 7.84 µM
  TGI: 9.43 µM and 40.4 µM
HOP-62 NSCLC
  TGI: 7.66 µM
OVCAR-4 ovarian
  GI50: 3.25 µM
  TGI: 8.24 µM
SW-620 colon
  GI50: 1460 nM
  TGI: 4.54 µM and 3.23 µM
LOX IMVI melanoma
  GI50: 1760 nM
  TGI: 3.73 µM and 4.22 µM
U251 CNS
  GI50: 2740 nM
  TGI: 6.93 µM
HL-60(TB) leukemia
  TGI: 5.19 µM
MCF7 breast
  GI50: 4.08 µM
  TGI: 7.13 µM and 15.6 µM
MDA-N
  GI50: 2050 nM
  TGI: 7.34 µM and 4.3 µM
RPMI-8226 leukemia
  TGI: 3.06 µM
BT-549 breast
  GI50: 1990 nM
  TGI: 3.83 µM and 4.53 µM
SK-OV-3 ovarian
  TGI: 27.1 µM
UO-31 renal
  GI50: 2170 nM
  TGI: 8.19 µM and 4.53 µM
HCT-116 colon
  TGI: 3.14 µM and 3.21 µM
SK-MEL-5 melanoma
  TGI: 6.96 µM and 6.1 µM
NCI-H460 lung
  TGI: 20.7 µM
HCT-15 colon
  GI50: 2010 nM
  TGI: 9.57 µM and 3.94 µM
COLO 205 colon
  GI50: 2130 nM
  TGI: 4.64 µM
SF-539 CNS
  GI50: 1980 nM
  TGI: 3.86 µM
M14 melanoma
  GI50: 2010 nM
  TGI: 7.74 µM and 4.9 µM
SK-MEL-2 melanoma
  GI50: 3.14 µM
  TGI: 7.42 µM
MOLT-4 leukemia
  TGI: 8.82 µM
OVCAR-5 ovarian
  TGI: 19.4 µM
DU-145 prostate
  TGI: 26.7 µM
A549 NSCLC
  TGI: 38.1 µM
SF-268 CNS
  TGI: 8.32 µM and 8.82 µM
SNB-19 CNS
  TGI: 8.73 µM
OVCAR-8 ovarian
  GI50: 2260 nM
  TGI: 5.69 µM
UACC-62 melanoma
  GI50: 2170 nM
  TGI: 6.83 µM
CAKI-1 renal
  GI50: 3.69 µM
  TGI: 8.08 µM and 10.2 µM
OVCAR-3 ovarian
  GI50: 2010 nM
  TGI: 3.73 µM
RXF 393 renal
  TGI: 6.98 µM and 5.42 µM
786-0 renal
  GI50: 1670 nM
  TGI: 3.73 µM and 3.21 µM
MALME-3M melanoma
  GI50: 2220 nM
  TGI: 8.51 µM and 4.96 µM
ACHN renal
  GI50: 3.94 µM
  TGI: 9.71 µM
KM12 colon
  GI50: 2940 nM
  TGI: 9.46 µM
IGROV1 ovarian
  GI50: 2130 nM
  TGI: 4.16 µM
SK-MEL-28 melanoma
  GI50: 5.88 µM
  TGI: 14.2 µM
CCRF-CEM leukemia
  GI50: 223 nM
  TGI: 6.34 µM and 1.38 µM
NCI/ADR-RES ovarian
  GI50: 4.39 µM
  TGI: 10.9 µM
A498 renal
  TGI: 35.3 µM
NCI-H23 lung
  GI50: 2460 nM
  TGI: 5.57 µM
EKVX NSCLC
  TGI: 12.8 µM
TK-10 renal
  TGI: 24.6 µM
SN12C renal
  GI50: 1890 nM
  TGI: 7.06 µM and 3.6 µM
NCI-H226 lung
  GI50: 1910 nM
  TGI: 5.22 µM
T-47D breast
  GI50: 30.1 µM
SNB-75 CNS
  TGI: 11 µM
UACC-257 melanoma
  TGI: 7.78 µM and 8.58 µM
MDA-MB-435
  GI50: 2130 nM
  TGI: 8.65 µM and 4.27 µM
HCC-2998 colon
  TGI: 30.5 µM

## C/C=C(/C)C(=O)O[C@@H]1CCN2CC[C@H](COC(=O)/C(=C/C)CO)C12 (some centres undefined)
SR leukemia
  TGI: > 100 µM
HS 578T breast
  TGI: > 93.4 µM
HT29 colon
  TGI: > 31.6 µM
PC-3 prostate
  TGI: > 100 µM
MDA-MB-231 breast
  TGI: > 100 µM
SF-295 CNS
  TGI: > 100 µM
NCI-H522 lung
  TGI: > 100 µM
K-562 leukemia
  TGI: 18.3 µM
HOP-62 NSCLC
  TGI: > 100 µM
OVCAR-4 ovarian
  TGI: > 100 µM
SW-620 colon
  TGI: > 100 µM
LOX IMVI melanoma
  TGI: > 100 µM
U251 CNS
  TGI: > 100 µM
HL-60(TB) leukemia
  TGI: > 100 µM
MCF7 breast
  TGI: > 100 µM
MDA-N
  TGI: > 100 µM
RPMI-8226 leukemia
  TGI: > 87.8 µM
BT-549 breast
  TGI: > 100 µM
SK-OV-3 ovarian
  TGI: > 100 µM
UO-31 renal
  TGI: > 100 µM
HCT-116 colon
  TGI: > 100 µM
SK-MEL-5 melanoma
  TGI: > 62 µM
NCI-H460 lung
  TGI: > 100 µM
HCT-15 colon
  TGI: > 100 µM
COLO 205 colon
  TGI: 42.7 µM
SF-539 CNS
  TGI: > 100 µM
M14 melanoma
  TGI: 36.3 µM
SK-MEL-2 melanoma
  TGI: > 100 µM
MOLT-4 leukemia
  TGI: > 100 µM
OVCAR-5 ovarian
  TGI: > 100 µM
DU-145 prostate
  TGI: > 100 µM
A549 NSCLC
  TGI: > 100 µM
SF-268 CNS
  TGI: > 100 µM
SNB-19 CNS
  TGI: > 100 µM
OVCAR-8 ovarian
  TGI: > 100 µM
UACC-62 melanoma
  TGI: > 100 µM
CAKI-1 renal
  TGI: > 100 µM
OVCAR-3 ovarian
  TGI: > 100 µM
RXF 393 renal
  TGI: > 100 µM
786-0 renal
  TGI: > 100 µM
MALME-3M melanoma
  TGI: 84.2 µM
ACHN renal
  TGI: > 100 µM
HOP-92 NSCLC
  TGI: > 100 µM
KM12 colon
  TGI: > 100 µM
IGROV1 ovarian
  TGI: > 100 µM
SK-MEL-28 melanoma
  TGI: > 100 µM
CCRF-CEM leukemia
  TGI: > 100 µM
NCI/ADR-RES ovarian
  TGI: > 100 µM
NCI-H23 lung
  TGI: > 100 µM
EKVX NSCLC
  TGI: > 100 µM
TK-10 renal
  TGI: > 100 µM
SN12C renal
  TGI: > 100 µM
NCI-H226 lung
  TGI: > 100 µM
T-47D breast
  TGI: > 100 µM
SNB-75 CNS
  TGI: > 100 µM
UACC-257 melanoma
  TGI: 99.7 µM
MDA-MB-435
  TGI: > 100 µM
HCC-2998 colon
  TGI: 44 µM
